Experimental data: US8283373B2, “Inhibitors of cytosolic phospholipase A2” (Pfizer Inc., priority 2005, dated 2012)

Experiments:
cPLA2α = molecular target: T1, cPLA2α (Homo sapiens, UniProt P47712); assay: GLU Micelle Assay; format: biochemical
T1 sequence (P47712 1-749): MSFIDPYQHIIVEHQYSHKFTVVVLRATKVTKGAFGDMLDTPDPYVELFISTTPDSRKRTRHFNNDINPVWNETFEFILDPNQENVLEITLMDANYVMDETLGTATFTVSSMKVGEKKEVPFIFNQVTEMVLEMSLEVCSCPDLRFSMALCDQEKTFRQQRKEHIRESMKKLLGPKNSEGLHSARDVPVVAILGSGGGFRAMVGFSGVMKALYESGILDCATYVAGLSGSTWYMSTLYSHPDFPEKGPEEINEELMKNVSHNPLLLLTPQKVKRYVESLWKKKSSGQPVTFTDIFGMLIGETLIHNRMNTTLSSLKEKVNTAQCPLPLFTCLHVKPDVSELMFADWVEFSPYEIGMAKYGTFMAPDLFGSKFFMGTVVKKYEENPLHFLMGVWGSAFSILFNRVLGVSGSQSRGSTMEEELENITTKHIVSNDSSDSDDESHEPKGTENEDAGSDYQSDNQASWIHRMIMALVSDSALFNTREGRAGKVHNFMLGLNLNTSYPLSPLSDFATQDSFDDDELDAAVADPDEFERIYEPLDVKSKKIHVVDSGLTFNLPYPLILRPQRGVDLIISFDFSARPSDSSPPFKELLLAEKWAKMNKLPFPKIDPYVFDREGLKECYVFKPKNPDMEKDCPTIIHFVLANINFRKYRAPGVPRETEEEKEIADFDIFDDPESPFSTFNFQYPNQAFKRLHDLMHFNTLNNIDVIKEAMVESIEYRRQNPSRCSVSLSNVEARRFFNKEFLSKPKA
Outline: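 Fluorogenic micelle assay with 1 μg/ml cPLA2α and 90 μM GLU substrate plus 120 μM DTPC in 940 μM Triton X-100, 50 mM Hepes pH 7.4, 0.3 mM EDTA, 1 mM CaCl2, 300 mM KCl. Fluorescence (ex 355/em 460) was read every 4 min for 84 min. Percent inhibition came from slopes relative to positive and negative controls.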

serum thromboxane B2 = assay: Thromboxane B2 levels in the ApoE KO mouse model; format: in vivo; details: ApoE KO mice, 3.3 mg/g chow for two days; vehicle 76.1±17.3
Description: Blood was collected through the retro-orbital siunus and left to coagulate at 37° C. for one hour. Serum was then isolated and assayed for thromboxane B2 by ELISA.
In a separate experiment, ApoE KO mice were dosed with vehicle or the compound of Example 25 at 10 mg/kg by oral gavage. Blood was collected through the retro-orbital siunus and left to coagulate at 37° C. for one hour. Serum was then isolated and assayed for thromboxane B2 by ELISA.

TXB2 = assay: Rat Whole Blood Assay (A23187-stimulated TXB2); format: cell-based; details: Rattus norvegicus; A23187 5 μM
Outline: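 Heparinized male Sprague-Dawley rat blood pre-incubated 15 min at 37 °C with compound or DMSO, then stimulated with 5 μM (final) A23187 for 10 min at 37 °C. Stopped with 20 mM EDTA; TXB2 in methanol-extracted plasma measured by ELISA.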

[1] = system: primary dopaminergic neurons; assay: MPP+ exposure in dopaminergic neurons; format: cell-based, rat; details: 10 μM MPP+ 60 minutes, control 100, MPP+ alone 56.6
Description: Primary dopaminergic neurons were isolated from E15 rat embryos as described in Pong K., et al., (1997) J. Neurochem. 69 986-994. Briefly, the ventral mesencephalon was isolated and tissue was pooled in ice-cold phosphate buffer saline (PBS) without Ca^2+ and Mg^2+. The tissue was transferred to an enzymatic dissociation media containing 20 IU/ml papain in Earle's balanced salt solution (Worthington Biochemical, Freehold, N.J.) and incubated for 30 minutes at 37° C. After enzymatic dissociation, the papain solution was aspirated and the tissue mechanically triturated with a fire-polished Pasteur pipette in complete media [Neurobasal Medium with B-27 supplement (Gibco, Grand Island, N.Y.), penicillin/streptomycin, aphidicolin, glutamate] containing 2,000 IU/ml DNase and 10 mg/ml ovomucoid protease inhibitor. Single-cell suspensions in complete media were plated on pre-coated poly-L-ornithine/laminin 24-well plates (Becton-Dickinson, Bedford, Mass.) at a density of 5.0×10^5 cells/well. Cells were maintained for one week prior to experimentation.
Cultures were exposed to 10 μM MPP^+ for 60 minutes. After the exposure, fresh media was exchanged and fresh compound was added. Dopaminergic neuron viability was determined 24 hours later by measuring ^3H-dopamine uptake as described in Pong et al., 1997, supra.

Row | SMILES | IC50 (cPLA2α) | serum Thromboxane concentration (serum thromboxane B2) | IC50 (TXB2) | dopaminergic neuron viability (3H-dopamine uptake), Avg. ([1]; 0.3 μM) | dopaminergic neuron viability (3H-dopamine uptake), Avg. ([1]; 1 μM) | dopaminergic neuron viability (3H-dopamine uptake), Avg. ([1]; 3 μM) | dopaminergic neuron viability (3H-dopamine uptake), Avg. ([1]; 10 μM)
1 | O=C(O)c1ccc(CCCc2c(CCNS(=O)(=O)Cc3ccccc3C(F)(F)F)n(C(c3ccccc3)c3ccccc3)c3ccc(Cl)cc23)cc1 [Example 10, 4-(3-{5-chloro-1-(diphenylmethyl)-2-[2-({[2-(trifluoromethyl)benzyl]sulfonyl}amino)ethyl]-1H-indol-3-yl}propyl)benzoic acid] | 9 nM | 1.4 ± 0.7 ng/mL | 20 nM | – | – | – | –
2 | Cc1cccc(C)c1CS(=O)(=O)NCCc1c(CCCc2ccc(C(=O)O)cc2)c2cc(Cl)ccc2n1C(c1ccccc1)c1ccccc1 [Compound A, 4-{3-[1-benzhydryl-5-chloro-2-(2-{[(2,6-dimethylbenzyl)sulfonyl]amino}ethyl)-1H-indol-3-yl]propyl}benzoic acid] | – | – | – | 76.9 | 83.4 | 78.8 | 81.1
